Results taken from US7759331B2, “Pyridine-containing macroheterococylic compounds as kinase inhibitors” (Janssen Pharmaceutica NV, priority 2006, dated 2010).

How the values were obtained:
Assay in all cases: Protein kinase selectivity panel
Format in all cases: biochemical
Conditions in all cases: 1.0 μM compound, 10 μM ATP
CDK6/cyclinD3(h) = CDK6/cyclinD3(h) (Homo sapiens, UniProt Q00534)
Method in brief: (§1)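 At a fixed 1.0 μM compound, activity toward peptide or protein substrates was determined with ATP at 10 μM.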

CK2(h) = CK2(h) (Homo sapiens, UniProt P68400)
Method in brief: as §1

EphB2(h) = biological target: T1, EphB2(h) (Homo sapiens, UniProt P29323)
T1 sequence (P29323 19-1055): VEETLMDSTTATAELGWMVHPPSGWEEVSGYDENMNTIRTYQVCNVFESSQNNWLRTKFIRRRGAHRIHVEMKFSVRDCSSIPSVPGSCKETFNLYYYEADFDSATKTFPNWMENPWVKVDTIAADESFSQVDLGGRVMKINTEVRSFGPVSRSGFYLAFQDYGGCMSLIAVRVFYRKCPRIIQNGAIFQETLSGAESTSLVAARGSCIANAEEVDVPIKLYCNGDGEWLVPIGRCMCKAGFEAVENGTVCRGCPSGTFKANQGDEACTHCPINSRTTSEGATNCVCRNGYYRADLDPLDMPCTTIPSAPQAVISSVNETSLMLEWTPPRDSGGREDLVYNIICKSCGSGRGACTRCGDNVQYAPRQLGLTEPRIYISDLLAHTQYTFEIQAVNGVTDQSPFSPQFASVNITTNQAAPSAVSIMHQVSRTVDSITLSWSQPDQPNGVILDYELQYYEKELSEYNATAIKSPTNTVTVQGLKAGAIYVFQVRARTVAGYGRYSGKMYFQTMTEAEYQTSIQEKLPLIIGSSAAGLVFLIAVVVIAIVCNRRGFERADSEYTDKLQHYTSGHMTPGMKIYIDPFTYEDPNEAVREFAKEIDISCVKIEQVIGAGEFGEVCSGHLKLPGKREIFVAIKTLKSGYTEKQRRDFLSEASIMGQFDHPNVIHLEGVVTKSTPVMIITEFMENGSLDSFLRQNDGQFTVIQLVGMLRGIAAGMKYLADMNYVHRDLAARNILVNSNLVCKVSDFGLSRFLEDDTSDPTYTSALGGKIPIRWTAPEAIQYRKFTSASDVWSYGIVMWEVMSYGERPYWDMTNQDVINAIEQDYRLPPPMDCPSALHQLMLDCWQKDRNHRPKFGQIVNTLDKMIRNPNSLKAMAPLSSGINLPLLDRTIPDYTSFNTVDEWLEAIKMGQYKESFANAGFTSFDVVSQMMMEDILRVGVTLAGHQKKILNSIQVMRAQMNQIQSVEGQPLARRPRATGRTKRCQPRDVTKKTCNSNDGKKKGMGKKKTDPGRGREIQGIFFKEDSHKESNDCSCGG
Method in brief: as §1

GSK3α(h) = GSK3α(h) (Homo sapiens, UniProt P49840)
Method in brief: as §1

IKKα(h) = biological target: T2, IKKα(h) (Homo sapiens, UniProt O15111)
T2 sequence (O15111 1-745): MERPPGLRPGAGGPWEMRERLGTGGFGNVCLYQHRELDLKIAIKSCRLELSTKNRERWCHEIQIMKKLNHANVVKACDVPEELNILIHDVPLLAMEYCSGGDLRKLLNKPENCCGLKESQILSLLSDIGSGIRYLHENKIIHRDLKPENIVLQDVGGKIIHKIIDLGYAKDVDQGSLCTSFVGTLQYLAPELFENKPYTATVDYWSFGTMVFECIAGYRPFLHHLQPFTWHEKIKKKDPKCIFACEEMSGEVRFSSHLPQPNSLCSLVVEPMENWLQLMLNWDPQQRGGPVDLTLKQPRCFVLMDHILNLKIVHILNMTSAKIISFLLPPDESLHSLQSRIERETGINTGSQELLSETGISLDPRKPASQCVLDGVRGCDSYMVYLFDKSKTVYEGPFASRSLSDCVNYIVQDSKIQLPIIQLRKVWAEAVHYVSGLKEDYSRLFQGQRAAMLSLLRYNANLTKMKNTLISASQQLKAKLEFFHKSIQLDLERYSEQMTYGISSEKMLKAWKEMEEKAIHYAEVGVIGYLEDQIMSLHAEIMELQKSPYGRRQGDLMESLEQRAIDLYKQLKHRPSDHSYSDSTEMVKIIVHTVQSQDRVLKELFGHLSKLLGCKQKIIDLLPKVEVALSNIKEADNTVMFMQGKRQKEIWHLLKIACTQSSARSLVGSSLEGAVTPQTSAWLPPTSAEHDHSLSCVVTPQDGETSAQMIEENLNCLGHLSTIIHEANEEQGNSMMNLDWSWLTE
Method in brief: as §1

MEK1(h) = MEK1(h) (Homo sapiens, UniProt Q02750)
Method in brief: as §1

PDGFRβ(h) = PDGFRβ(h) (Homo sapiens, UniProt P09619)
Method in brief: as §1

PKCδ(h) = PKCδ(h) (Homo sapiens, UniProt Q05655)
Method in brief: as §1

PRK2(h) = PRK2(h) (Homo sapiens, UniProt Q16513)
Method in brief: as §1

ROCK-II(h) = ROCK-II(h) (Homo sapiens, UniProt O75116)
Method in brief: as §1

Syk(h) = Syk(h) (Homo sapiens, UniProt P43405)
Method in brief: as §1

TrkB(h) = TrkB(h) (Homo sapiens, UniProt Q16620)
Method in brief: as §1

Sequence of PRK2(h) (Q16513 whole entry): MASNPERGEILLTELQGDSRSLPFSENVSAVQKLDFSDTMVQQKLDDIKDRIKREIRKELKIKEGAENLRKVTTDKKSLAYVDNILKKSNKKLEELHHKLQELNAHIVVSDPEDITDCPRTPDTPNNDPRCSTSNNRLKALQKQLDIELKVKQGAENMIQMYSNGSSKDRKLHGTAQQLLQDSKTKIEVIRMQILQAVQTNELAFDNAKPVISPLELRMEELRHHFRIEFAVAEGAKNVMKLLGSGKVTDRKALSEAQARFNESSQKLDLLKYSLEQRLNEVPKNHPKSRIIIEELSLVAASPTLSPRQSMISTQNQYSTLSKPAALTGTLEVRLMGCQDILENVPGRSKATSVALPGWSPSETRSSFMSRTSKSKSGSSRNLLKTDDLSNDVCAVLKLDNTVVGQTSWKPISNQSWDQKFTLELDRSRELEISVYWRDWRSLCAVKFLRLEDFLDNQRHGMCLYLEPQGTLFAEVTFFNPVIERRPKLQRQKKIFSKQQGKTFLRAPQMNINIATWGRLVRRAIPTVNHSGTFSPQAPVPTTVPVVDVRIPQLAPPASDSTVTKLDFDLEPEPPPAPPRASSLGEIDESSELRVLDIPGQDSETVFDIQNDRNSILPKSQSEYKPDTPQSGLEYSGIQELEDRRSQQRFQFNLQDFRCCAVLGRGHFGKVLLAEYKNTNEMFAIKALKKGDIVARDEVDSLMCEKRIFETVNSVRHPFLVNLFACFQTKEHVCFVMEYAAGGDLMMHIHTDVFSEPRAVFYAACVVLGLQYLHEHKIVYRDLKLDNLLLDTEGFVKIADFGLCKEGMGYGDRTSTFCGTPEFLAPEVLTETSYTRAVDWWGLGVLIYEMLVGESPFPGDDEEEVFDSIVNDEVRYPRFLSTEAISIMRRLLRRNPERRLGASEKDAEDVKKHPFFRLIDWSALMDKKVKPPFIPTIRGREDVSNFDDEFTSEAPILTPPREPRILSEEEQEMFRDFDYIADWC
Sequence of TrkB(h) (Q16620 32-822): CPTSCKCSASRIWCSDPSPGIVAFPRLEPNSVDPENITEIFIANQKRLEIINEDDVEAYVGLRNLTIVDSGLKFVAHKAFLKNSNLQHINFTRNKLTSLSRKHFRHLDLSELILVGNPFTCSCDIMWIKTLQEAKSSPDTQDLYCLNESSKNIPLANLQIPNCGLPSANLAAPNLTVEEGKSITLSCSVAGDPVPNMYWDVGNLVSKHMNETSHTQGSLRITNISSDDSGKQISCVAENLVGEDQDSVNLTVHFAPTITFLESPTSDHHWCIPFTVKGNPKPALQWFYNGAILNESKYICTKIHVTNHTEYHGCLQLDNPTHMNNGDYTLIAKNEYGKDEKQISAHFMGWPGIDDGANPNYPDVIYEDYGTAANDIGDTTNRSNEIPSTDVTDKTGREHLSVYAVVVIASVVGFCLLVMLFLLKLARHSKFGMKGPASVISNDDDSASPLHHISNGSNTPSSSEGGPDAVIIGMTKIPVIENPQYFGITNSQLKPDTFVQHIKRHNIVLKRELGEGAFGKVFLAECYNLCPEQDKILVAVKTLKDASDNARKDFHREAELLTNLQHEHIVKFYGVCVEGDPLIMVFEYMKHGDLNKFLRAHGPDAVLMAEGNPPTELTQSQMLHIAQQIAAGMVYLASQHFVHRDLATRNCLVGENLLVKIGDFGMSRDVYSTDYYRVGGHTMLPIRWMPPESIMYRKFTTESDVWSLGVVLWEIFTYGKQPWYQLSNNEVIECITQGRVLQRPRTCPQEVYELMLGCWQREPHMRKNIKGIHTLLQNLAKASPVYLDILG
Sequence of CDK6/cyclinD3(h) (Q00534 whole entry): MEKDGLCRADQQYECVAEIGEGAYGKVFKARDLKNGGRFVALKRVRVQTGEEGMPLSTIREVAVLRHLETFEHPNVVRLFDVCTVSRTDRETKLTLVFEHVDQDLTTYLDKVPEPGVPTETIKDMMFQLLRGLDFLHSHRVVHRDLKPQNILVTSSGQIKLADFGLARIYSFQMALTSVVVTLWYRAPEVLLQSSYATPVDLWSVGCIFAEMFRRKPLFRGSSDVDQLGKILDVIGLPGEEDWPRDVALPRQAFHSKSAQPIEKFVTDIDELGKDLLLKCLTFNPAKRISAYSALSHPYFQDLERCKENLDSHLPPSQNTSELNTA
Sequence of CDK6/cyclinD3(h) (P30281 whole entry partner): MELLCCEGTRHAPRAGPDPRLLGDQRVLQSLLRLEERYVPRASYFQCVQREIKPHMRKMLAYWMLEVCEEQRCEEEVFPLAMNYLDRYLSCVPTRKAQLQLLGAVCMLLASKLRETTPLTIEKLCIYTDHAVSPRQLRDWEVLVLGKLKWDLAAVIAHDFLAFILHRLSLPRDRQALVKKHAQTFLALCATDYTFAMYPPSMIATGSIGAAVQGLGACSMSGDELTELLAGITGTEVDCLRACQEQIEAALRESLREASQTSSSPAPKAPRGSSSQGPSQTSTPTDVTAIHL
Sequence of MEK1(h) (Q02750 whole entry): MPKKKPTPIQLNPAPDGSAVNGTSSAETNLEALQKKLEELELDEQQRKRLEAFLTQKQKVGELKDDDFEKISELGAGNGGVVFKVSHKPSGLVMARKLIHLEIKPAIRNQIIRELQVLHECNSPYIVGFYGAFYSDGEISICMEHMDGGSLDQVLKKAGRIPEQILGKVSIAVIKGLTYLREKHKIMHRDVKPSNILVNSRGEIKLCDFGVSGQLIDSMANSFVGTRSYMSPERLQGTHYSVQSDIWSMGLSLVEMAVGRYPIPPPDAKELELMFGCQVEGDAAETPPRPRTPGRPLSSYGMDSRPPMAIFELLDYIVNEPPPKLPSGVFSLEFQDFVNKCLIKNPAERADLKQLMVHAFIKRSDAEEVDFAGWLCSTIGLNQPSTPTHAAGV
Sequence of ROCK-II(h) (O75116 whole entry): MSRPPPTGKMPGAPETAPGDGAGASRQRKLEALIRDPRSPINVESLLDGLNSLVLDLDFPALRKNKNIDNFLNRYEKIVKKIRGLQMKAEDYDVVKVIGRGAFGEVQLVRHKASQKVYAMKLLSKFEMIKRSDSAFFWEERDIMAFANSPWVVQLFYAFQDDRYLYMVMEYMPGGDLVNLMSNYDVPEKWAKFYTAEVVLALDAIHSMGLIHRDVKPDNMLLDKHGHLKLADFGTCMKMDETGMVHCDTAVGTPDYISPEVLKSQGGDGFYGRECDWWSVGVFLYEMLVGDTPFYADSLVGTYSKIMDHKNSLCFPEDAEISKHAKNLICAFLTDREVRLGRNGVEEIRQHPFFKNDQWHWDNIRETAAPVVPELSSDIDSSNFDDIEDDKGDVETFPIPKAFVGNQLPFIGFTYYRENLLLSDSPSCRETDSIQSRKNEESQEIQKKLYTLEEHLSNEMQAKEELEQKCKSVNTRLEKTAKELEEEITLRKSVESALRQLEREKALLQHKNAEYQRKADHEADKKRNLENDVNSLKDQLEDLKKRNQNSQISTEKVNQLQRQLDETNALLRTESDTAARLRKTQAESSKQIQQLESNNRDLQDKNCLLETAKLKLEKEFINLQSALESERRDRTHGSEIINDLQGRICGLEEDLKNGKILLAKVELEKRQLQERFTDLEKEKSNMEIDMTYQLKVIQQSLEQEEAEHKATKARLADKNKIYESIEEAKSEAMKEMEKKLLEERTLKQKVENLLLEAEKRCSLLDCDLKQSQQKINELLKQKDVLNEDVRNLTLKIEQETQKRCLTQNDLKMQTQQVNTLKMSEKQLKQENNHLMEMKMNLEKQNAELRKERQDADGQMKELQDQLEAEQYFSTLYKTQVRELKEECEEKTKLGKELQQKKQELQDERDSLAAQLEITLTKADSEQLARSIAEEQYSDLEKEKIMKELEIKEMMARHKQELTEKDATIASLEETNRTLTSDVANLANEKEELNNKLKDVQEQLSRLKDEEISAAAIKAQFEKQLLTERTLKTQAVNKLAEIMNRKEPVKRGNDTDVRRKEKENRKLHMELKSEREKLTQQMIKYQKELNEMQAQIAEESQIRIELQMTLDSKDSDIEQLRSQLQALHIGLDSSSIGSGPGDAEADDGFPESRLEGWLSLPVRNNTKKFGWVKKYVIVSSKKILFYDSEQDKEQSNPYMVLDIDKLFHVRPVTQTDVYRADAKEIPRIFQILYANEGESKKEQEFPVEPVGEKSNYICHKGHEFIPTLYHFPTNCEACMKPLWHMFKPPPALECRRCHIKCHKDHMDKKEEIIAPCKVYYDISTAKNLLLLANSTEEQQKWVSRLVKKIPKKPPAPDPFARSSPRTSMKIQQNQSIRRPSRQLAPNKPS
Sequence of GSK3α(h) (P49840 whole entry): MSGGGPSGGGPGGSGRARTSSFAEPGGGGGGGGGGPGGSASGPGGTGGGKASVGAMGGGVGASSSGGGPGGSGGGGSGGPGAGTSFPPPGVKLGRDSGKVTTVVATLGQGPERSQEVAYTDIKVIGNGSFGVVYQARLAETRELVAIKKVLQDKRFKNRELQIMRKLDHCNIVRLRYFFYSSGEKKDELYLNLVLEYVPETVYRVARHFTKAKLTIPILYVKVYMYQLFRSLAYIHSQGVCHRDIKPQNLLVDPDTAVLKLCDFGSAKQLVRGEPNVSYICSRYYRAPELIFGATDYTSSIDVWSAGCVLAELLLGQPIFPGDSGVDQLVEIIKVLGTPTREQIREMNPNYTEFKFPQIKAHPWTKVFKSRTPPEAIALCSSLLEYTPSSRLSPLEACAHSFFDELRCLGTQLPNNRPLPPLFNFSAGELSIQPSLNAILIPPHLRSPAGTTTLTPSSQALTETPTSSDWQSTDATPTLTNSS

Activity at Protein Kinase Assays (% of control), CDK6/cyclinD3(h) (CDK6/cyclinD3(h))	Activity at Protein Kinase Assays (% of control), CK2(h) (CK2(h))	Activity at Protein Kinase Assays (% of control), EphB2(h) (EphB2(h))	Activity at Protein Kinase Assays (% of control), GSK3α(h) (GSK3α(h))	Activity at Protein Kinase Assays (% of control), IKKα(h) (IKKα(h))	Activity at Protein Kinase Assays (% of control), MEK1(h) (MEK1(h))	Activity at Protein Kinase Assays (% of control), PDGFRβ(h) (PDGFRβ(h))	Activity at Protein Kinase Assays (% of control), PKCδ(h) (PKCδ(h))	Activity at Protein Kinase Assays (% of control), PRK2(h) (PRK2(h))	Activity at Protein Kinase Assays (% of control), ROCK-II(h) (ROCK-II(h))	Activity at Protein Kinase Assays (% of control), Syk(h) (Syk(h))	Activity at Protein Kinase Assays (% of control), TrkB(h) (TrkB(h))	Compound
86 % of control	107 % of control	125 % of control	4 % of control	92 % of control	76 % of control	147 % of control	73 % of control	106 % of control	110 % of control	86 % of control	–	CN(C)c1nc2ccc1CCCCn1cc(c3ccccc31)C1=C(C(=O)NC1=O)c1cn(c3ccccc13)CCC2 [Cpd 1, 31-(dimethylamino)-5,15,25,32-tetraazaheptacyclo[28.2.2.1^5,12.1^18,25.0^6,11.0^13,17.0^19,24]hexatriaconta-1(32),6,8,10,12(36),13(17),18(35),19,21,23,30,33-dodecaene-14,16-dione]
74 % of control	111 % of control	114 % of control	3 % of control	133 % of control	93 % of control	101 % of control	100 % of control	113 % of control	103 % of control	101 % of control	98 % of control	CN(C)c1cc2cc(n1)CCCn1cc(c3ccccc31)C1=C(C(=O)NC1=O)c1cn(c3ccccc13)CCC2 [Cpd 2, 20-(dimethylamino)-4,14,19,26-tetraazaheptacyclo[24.6.1.1^7,14.1^18,22.0^2,6.0^8,13.0^27,32]pentatriaconta-1(33),2(6),7(35),8,10,12,18(34),19,21,27,29,31-dodecaene-3,5-dione]
82 % of control	108 % of control	110 % of control	4 % of control	132 % of control	91 % of control	103 % of control	104 % of control	110 % of control	107 % of control	105 % of control	105 % of control	O=C1NC(=O)C2=C1c1cn(c3ccccc13)CCCc1cc(nc(N3CCCC3)c1)CCCn1cc2c2ccccc21 [Cpd 6, 20-pyrrolidin-1-yl-4,14,19,26-tetraazaheptacyclo[24.6.1.1^7,14.1^18,22.0^2,6.0^8,13.0^27,32]pentatriaconta-1(33),2(6),7(35),8,10,12,18(34),19,21,27,29,31-dodecaene-3,5-dione]
92 % of control	113 % of control	114 % of control	9 % of control	121 % of control	98 % of control	105 % of control	91 % of control	126 % of control	104 % of control	109 % of control	106 % of control	O=C1NC(=O)C2=C1c1cn(c3ccccc13)CCCc1ccc(c(N3CCCC3)n1)CCCn1cc2c2ccccc21 [Cpd 7, 31-pyrrolidin-1-yl-5,15,25,30-tetraazaheptacyclo[27.2.2.1^5,12.1^18,25.0^6,11.0^13,17.0^19,24]pentatriaconta-1(31),6,8,10,12(35),13(17),18(34),19,21,23,29,32-dodecaene-14,16-dione]
